Usually EC50 stands for the concentration at which the effect is half-maximal. Low readings indicate a more potent agent, high ones a less potent agent.

The test system of assay [1] is Canis familiaris. The assay is described as follows: Tested for response in dogs after iv administration of 0.025 mg/kg; cured/treated is 1/1. The assay is classed as functional, organism-based. On the set-up: dose 0.025 mg/kg. The settings on record: Canis lupus familiaris.
The species entered for the next assay is Rattus norvegicus. The assay is described as follows: The compound was evaluated for its ability to release growth hormone from rat pituitary cells. The assay is classed as functional, cell-based. The settings on record: Pituitary gland cell.
The subject of assay [2] is Canis familiaris. Briefly: Tested for response in dogs after peroral administration of 0.25 mg/kg; cured/treated is 2/2. It is filed as functional, organism-based. Set-up: dose 0.25 mg/kg. The settings on record: Canis lupus familiaris.
Assay [3] relates to Canis familiaris. The assay is described as follows: Tested for response in dogs after peroral administration of 0.125 mg/kg; cured/treated is 1/2. The assay is classed as functional, organism-based. Conditions: Canis lupus familiaris. On the set-up: dose 0.125 mg/kg.
Assay [4] concerns Canis familiaris. Briefly: Tested for response in dogs after iv administration of 0.05 mg/kg; cured/treated is 1/1. It is filed as functional, organism-based. Set-up: dose 0.05 mg/kg. The settings on record: Canis lupus familiaris.
Assay [5] relates to Canis familiaris. The assay is described as follows: Tested for response in dogs after peroral administration of 1 mg/kg; cured/treated is 2/2. It is filed as functional, organism-based. Set-up: dose 1 mg/kg. Conditions: Canis lupus familiaris.
The subject of assay [6] is Canis familiaris. The assay is described as follows: Tested for response in dogs after peroral administration of 0.5 mg/kg; cured/treated is 1/2. It is filed as functional, organism-based. Set-up: dose 0.5 mg/kg. Conditions: Canis lupus familiaris.
For assay [7], the system named is Canis familiaris. Briefly: Tested for response in dogs after oral administration of 1 mg/kg; cured/treated is 2/2. Conditions: Canis lupus familiaris. The assay is classed as functional, organism-based. Set-up: dose 1 mg/kg.
In assay [8] the test system is Canis familiaris. The assay is described as follows: Tested for response in dogs after oral administration of 0.5 mg/kg; cured/treated is 1/2. Set-up: dose 0.5 mg/kg. The settings on record: Canis lupus familiaris. The assay is classed as functional, organism-based.
For assay [9], the system named is Canis familiaris. Briefly: Tested for response in dogs after iv administration of 0.05 mg/kg; cured/treated is 1/2. Set-up: dose 0.05 mg/kg. The settings on record: Canis lupus familiaris. The assay is classed as functional, organism-based.
Assay [10] has as its system Canis familiaris. The assay is described as follows: Tested for response in dogs after oral administration of 2 mg/kg; cured/treated is 0/1. It is filed as functional, organism-based. Set-up: dose 2 mg/kg. Conditions: Canis lupus familiaris.
Assay [11] concerns Canis familiaris. Briefly: Tested for response in dogs after iv administration of 0.05 mg/kg; cured/treated is 0/1. On the set-up: dose 0.05 mg/kg. It is filed as functional, organism-based. Conditions: Canis lupus familiaris.
Assay [12] deals with Canis familiaris. The assay is described as follows: Tested for response in dogs after oral administration of 1 mg/kg; cured/treated is 1/1. The assay is classed as functional, organism-based. On the set-up: dose 1 mg/kg. Conditions: Canis lupus familiaris.
Assay [13] relates to Canis familiaris. The assay is described as follows: Tested for response in dogs after iv administration of 0.1 mg/kg; cured/treated is 1/1. The assay is classed as functional, organism-based. Set-up: dose 0.1 mg/kg. Conditions: Canis lupus familiaris.
The test system of assay [14] is Canis familiaris. The assay is described as follows: Tested for response in dogs after iv administration of 0.1 mg/kg; cured/treated is 0/1. It is filed as functional, organism-based. Set-up: dose 0.1 mg/kg. Conditions: Canis lupus familiaris.

For `CC(C)(N)C(=O)N[C@H](CCCc1ccccc1)C(=O)N1CCC2(CC1)CC(=O)c1ccccc12`, the Response result in the assay on Canis familiaris [1], in the assay with Canis familiaris [2] and with Canis familiaris [3] was “cured/treated is 1/1” in each case. The molecule further came in with an EC50 in the assay listed under Rattus norvegicus of 0.8 nM.
As to `CC(C)(N)C(=O)N[C@H](CCCc1ccccc1)C(=O)N1CCC2(CC1)CC(O)c1ccccc12` (stereo partly specified), it took 0.72 nM to reach a half-maximal effect in the assay filed under Rattus norvegicus (EC50).
Same read-out and setting: the same measure for `CC(C)(N)C(=O)N[C@H](Cc1c[nH]c2ccccc12)C(=O)N1CCC2(CC1)c1ccccc1CC2O` (stereo partly specified): 65 nM; for `CC(C)(N)C(=O)N[C@H](Cc1c[nH]c2ccccc12)C(=O)N1CCC2(CC1)c1ccccc1C(O)C2O` (stereo partly specified): 30 nM.
On to `CC(C)(N)C(=O)N[C@H](Cc1c[nH]c2ccccc12)C(=O)N1CCC2(CC1)CC(O)c1ccccc12` (stereo partly specified), for which the Response entry with Canis familiaris [4], in the assay on Canis familiaris [5] and in the assay on Canis familiaris [6] was “cured/treated is 1/1” each time. In the assay listed under Rattus norvegicus, this molecule registered an EC50 of 0.6 nM.
As to `CC(C)(N)C(=O)N[C@H](COCc1ccccc1)C(=O)N1CCC2(CC1)CC(=O)c1ccccc12`, in the assay filed under Rattus norvegicus, the half-maximal effective concentration (EC50) was determined as 4.8 nM.
In the case of `CC(C)(N)C(=O)N[C@H](Cc1c[nH]c2ccccc12)C(=O)N1CCC2(CC1)CC(=O)c1ccccc12`, the Response entry with Canis familiaris [7], in the assay on Canis familiaris [8] and in the assay on Canis familiaris [9] was “cured/treated is 1/2” each time. In the assay listed under Rattus norvegicus, this molecule registered a 50% effective concentration (EC50) of 1.2 nM.
The molecule `CC(C)(N)C(=O)N[C@H](COCc1ccccc1)C(=O)N1CCC2(CCc3ccccc32)CC1` came in with a half-maximal effective concentration (EC50) in the assay listed under Rattus norvegicus of 17 nM. This counts as double-digit nanomolar.
`CC(C)(N)C(=O)N[C@H](Cc1c[nH]c2ccccc12)C(=O)N1CCC2(CCc3ccccc32)CC1`: the Response result with Canis familiaris [10], in the assay with Canis familiaris [11], in the assay with Canis familiaris [12] and in the assay on Canis familiaris [13] was “cured/treated is 0/1” throughout.
Regarding `CC(C)(N)C(=O)N[C@H](CCCc1ccccc1)C(=O)N1CCC2(CCc3ccccc32)CC1`, the 50% effective concentration (EC50) in the assay filed under Rattus norvegicus is 10 nM. In addition, the Response result with Canis familiaris [5], in the assay on Canis familiaris [6] and in the assay with Canis familiaris [14] was “cured/treated is 0/1” each time.
`CC(C)(N)C(=O)N[C@H](COCc1ccccc1)C(=O)N1CCC2(CC1)CC(O)c1ccccc12` (stereo partly specified): the EC50 in the assay filed under Rattus norvegicus amounted to 4 nM.

For the origin of these results see ChEMBL document CHEMBL1129876, “The synthesis and activity of spiroindane growth hormone secretagogues” (Bioorg Med Chem Lett, 1997).
